Assay results: article PMC9913425, “Pentacyclic Triterpenoids-Based Ionic Compounds: Synthesis, Study of Structure–Antitumor Activity Relationship, Effects on Mitochondria and Activation of Signaling Pathways of Proliferation, Genome Reparation and Early Apoptosis” (Cancers, 2023)
One block for each compound: values may come before it.

Columns and labels:
K562 = assay: In vitro cytotoxicity, IC50 by flow cytometry (Guava ViaCount); format: cell-based
Protocol: (§1) Human cancer cell line HeLa, HL60, A2780 was obtained from the HPA Culture Collections (Salisbury, UK). Cells (Jurkat, K562, U937, Hek293, Fibroblasts) were purchased from Russian Cell Culture Collection (Institute of Cytology of the Russian Academy of Sciences, […], Russia) and cultured according to standard protocols and sterile technique. […] Cells were maintained in RPMI 1640 (Jurkat, K562, U937, HL60) (Gibco, Billings, MT, USA) supplemented with […], 10% FBS (Sigma) and 100 units/mL penicillin–streptomycin (Sigma). All types of cells were grown in an atmosphere of 5% CO2 at 37 °C. The cells were subcultured at 2–3 days intervals. Cells were then seeded in 24-well plates at 5 × 10^4 cells per well and incubated overnight. Jurkat, K562, U937, HL60 cells were subcultured at 2-day intervals with a seeding density of 1 × 10^5 cells per 24-well plates in RPMI with 10% FBS.
(§2) The antitumor activity of the synthesized ionic compounds was initially assessed in vitro on Jurkat, K562, U937, HL60, HEK293, A2780 cell lines, including the determination of IC50 by flow cytometry involving Guava ViaCount (Millipore) reagent kits.

U937 = assay: as above; format: cell-based
Protocol: as §1, §2

Jurkat = assay: as above; format: cell-based; conditions: Jurkat cells
Protocol: as §1, §2

HEK293 = assay: as above; format: cell-based; conditions: conditionally normal
Protocol: as §1, §2

A2780 = assay: as above; format: cell-based, human
Protocol: as §1, §2

HL60 = assay: as above; format: cell-based, human
Protocol: as §1, §2

Jurkat cells [1] = assay: Cell cycle analysis (Guava Cell Cycle Reagent); format: cell-based; conditions: IC50 concentration, 24 h, flow histogram
Protocol: Our findings are consistent with the literature data that many ICs predominantly affect the G2 and S phases, reducing them.
The incubation time of ionic liquids with cells was 24 h. […] It is listed because the picture prints the label with values. / The fit parameters printed in each histogram (RMS, Mean G1, Mean G2, G2/G1, CV G1, CV G2) were left out as statistics of the cell-cycle model.

[2] = test system: mitochondria of Jurkat tumor cells; assay: Mitochondrial damage (MitoSense Red staining); format: cell-based; conditions: compound at IC50 concentration, incubation 2 h
Jurkat cells [3] = assay: Apoptosis/necrosis induction (Annexin V Alexa Fluor488, 7AAD staining); format: cell-based; conditions: compound at IC50 concentration, incubation 2 h
Source text: Multiparametric evaluation of marker molecules, along with the detection of damage to the mitochondrial membrane, makes it possible to clearly determine the type of cell death. The method of cell staining with three different dyes (Annexin V Alexa Fluor488, 7AAD and MitoSense Red) provides simultaneous specification of various aspects of the state of the cell membrane, the state of DNA and the viability of mitochondria; together, it is a reliable sign of intrinsic and mitochondrial apoptosis pathway. Normal cells with intact mitochondrial membranes have high MitoSense Red fluorescence, while cells with decoupled oxidation and phosphorylation have much lower fluorescence. […]
Figure 1 The ratio of the level of mito-damage and the level of apoptosis in Jurkat cells of ionic compounds based on ursolic, oleanolic and betulinic acids.

Chk2 = assay: Luminex xMAP DNA Damage/Genotoxicity panel, phosphorylated Chk2; format: cell-based; conditions: Jurkat cells; 12a 0.006 µM, 13d 0.004 µM per 100,000 cells; 6 and 12 h
Source text: [Worded in the source for another target; used here, by the source, with some conditions changed.] (§3) The determination of proteins in a cell by Luminex xMAP technology is characterized by the presence of multiplex multiparametric analysis with the simultaneous use of a multiplex of antibodies with a fluorescent label and magnetic particles, thereby resulting in an increase in the sensitivity of the technique and expansion of the dynamic range, as well as an increase in detection accuracy. Luminex XMAP technology provides a simultaneous analysis of a sufficient number of different proteins in various types of biological fluids (plasma, serum, cerebrospinal fluid, follicular fluid, tissue lysate, etc.) and in cell supernatants. Consequently, multiplexing saves time/costs and ensures the same conditions for the measurements, which is essential for significance and statistical processing.
(§4) Magnetic microspheres (stained inside with two fluorescent dyes) in combination with monoclonal antibodies against the analyzed analytes (the main intracellular kinases in this case) are incubated with the samples and standards; then, the samples/standards are incubated with biotinylated monoclonal antibodies against the analyzed analytes and, finally, with a solution of streptavidin–phycoerythrin. The Luminex technology identifies the different proteins present in each well and converts the mean fluorescence intensity (MFI) of each measured cytokine to pg/mL using software and standard curves. This approach is successfully applied in fundamental and clinical research. In this work, we analyzed various protein analytes that make up the phosphorylated and non-phosphorylated fractions of the main kinases in the signaling pathways: CREB, JNK, NFkB, p38, ERK1/2, Akt, p70S6K, STAT3, STAT5 proteins in six samples of lysates of Jurkat tumor cells by Luminex technology (MILLIPLEX® MAP 9-Plex Multi-Pathway 9-plex Magnetic Bead Kit).

Chk1 = assay: Luminex xMAP DNA Damage/Genotoxicity panel, phosphorylated Chk1; format: cell-based; conditions: Jurkat cells; 12a 0.006 µM, 13d 0.004 µM per 100,000 cells; 6 and 12 h
Source text: [Worded in the source for another target; used here, by the source, with some conditions changed.] as §3, §4

γH2AX = assay: Luminex xMAP DNA Damage/Genotoxicity panel, phosphorylated γH2AX; format: cell-based; conditions: Jurkat cells; first six hours of incubation
Source text: as §3, with “processing. Simultaneous measurement of cytokines by bead multiplex analysis has certain similarities with ELISA, in particular the use of antibodies, but has a fundamental difference in using magnetic fluorescent beads coupled to antikinase monoclonal antibodies.” for “processing.”
as §4
Phosphorylation of histone H2AX at serine 139 (γH2AX) is an early stage in the cellular response to DNA damage, when the damage brings about formation of a double-strand break (DSB). γH2AX foci, considered as markers of DNA double-strand breaks, are easily detected by immunofluorescence microscopy and flow cytometry. The two main signaling pathways ATM/Chk2 and ATR/Chk1 respond to DNA damage and both lead to H2AX phosphorylation, but the ATR/Chk1 pathway causes γH2AX formation to a much lesser extent. The role of γH2AX in DNA repair is also discussed.
Incubation time with the test compounds was 6 and 12 h. p < 0.001 (***).

ATR kinase = assay: Luminex xMAP DNA Damage/Genotoxicity panel, ATR kinase content; format: cell-based; conditions: Jurkat cells; 12a 0.006 µM, 13d 0.004 µM per 100,000 cells; 6 and 12 h

Structure (SMILES): C[n+]1ccn(CCCCCCOC(=O)[C@]23CCC(C)(C)CC2C2=CCC4[C@@]5(C)CC[C@H](O)C(C)(C)C5CC[C@@]4(C)[C@]2(C)CC3)c1.O=C([O-])c1ccccc1O (stereo partly drawn) [13f, 1-(6-{[(3β)-3-Hydroxyolean-12-en-28-oyl]oxy}hexyl)-3-methylimidazolium Salicylate]
IC50 (K562; K562 cells): 13 ± 1 nM
IC50 (U937; U937 cells): 11 ± 1 nM
IC50 (Jurkat): 8 ± 1 nM
IC50 (HEK293; HEK293 cells): 37 ± 3 nM
IC50 (A2780; A2780 cells): 18 ± 2 nM
IC50 (HL60; HL60 cells): 3 ± 1 nM
Freq Sub-G1 (hypodiploid cell population) (Jurkat cells [1]): 9.83%
Mito-Damage (%) [2]: 49.43%
Apoptosis (%) Early (Jurkat cells [3]): 0.17%
Apoptosis (%) Late (Jurkat cells [3]): 35.95%
Apoptosis (%) Necrosis (Jurkat cells [3]): 11.07%

Structure (SMILES): N.N.[Cl][Pt][Cl] [cisplatin, reference compound]
Freq Sub-G1 (hypodiploid cell population) (Jurkat cells [1]): 32.27%

melting point: 123 to 125 °C
Structure (SMILES): CC(=O)O[C@H]1CC[C@@]2(C)C(CC[C@]3(C)C2CC=C2C4CC(C)(C)CC[C@]4(C(=O)OCCCCCCOC(=O)c4cncn4C)CC[C@]23C)C1(C)C (stereo partly drawn) [compound 4, 6-{[(1-Methyl-1H-imidazol-5-yl)carbonyl]oxy}hexyl (3β)-3-(acetyloxy)olean-12-en-28-oate]
IC50 (K562; Homo sapiens, K562, K562 cells): > 4000 nM
IC50 (U937; Homo sapiens, U-937, U937 cells): > 4000 nM
IC50 (Jurkat; Homo sapiens, Jurkat): > 4000 nM
IC50 (HEK293; Homo sapiens, HEK293, HEK293 cells): > 4000 nM
IC50 (A2780; Homo sapiens, A2780, A2780 cells): > 4000 nM
IC50 (HL60; Homo sapiens, HL-60, HL60 cells): > 4000 nM

Structure (SMILES): CO[C@H]1C[C@@H]2CC[C@@H](C)[C@@](O)(O2)C(=O)C(=O)N2CCCC[C@H]2C(=O)O[C@H]([C@H](C)C[C@@H]2CC[C@@H](O)[C@H](OC)C2)CC(=O)[C@H](C)/C=C(\C)[C@@H](O)[C@@H](OC)C(=O)[C@H](C)C[C@H](C)/C=C/C=C/C=C/1C [rapamycin, reference compound]
content of phosphorylated checkpoint kinase Chk2 (Chk2): significantly decreases
content of phosphorylated checkpoint kinase Chk1 (Chk1): significantly decreases
increase in the phosphorylated γH2AX histone fraction (γH2AX): ~9000 times
level of ATR kinase (ATR kinase): elevated levels

Structure (SMILES): CN[C@@H]1C[C@H]2O[C@@](C)([C@@H]1OC)n1c3ccccc3c3c4c(c5c6ccccc6n2c5c31)C(=O)NC4 [staurosporine]
content of phosphorylated checkpoint kinase Chk2 (Chk2): significantly decreases
content of phosphorylated checkpoint kinase Chk1 (Chk1): significantly decreases
increase in the phosphorylated γH2AX histone fraction (γH2AX): ~9000 times

Structure (SMILES): CC(C)[C@@H]1NC(=O)[C@H](C)OC(=O)[C@@H](C(C)C)NC(=O)[C@@H](C(C)C)OC(=O)[C@H](C(C)C)NC(=O)[C@H](C)OC(=O)[C@@H](C(C)C)NC(=O)[C@@H](C(C)C)OC(=O)[C@H](C(C)C)NC(=O)[C@H](C)OC(=O)[C@@H](C(C)C)NC(=O)[C@@H](C(C)C)OC1=O [valinomycin]
content of phosphorylated checkpoint kinase Chk2 (Chk2): significantly decreases
content of phosphorylated checkpoint kinase Chk1 (Chk1): significantly decreases
level of ATR kinase (ATR kinase): elevated levels
